Test results taken from US9193722B2, “Tri-cyclic pyrazolopyridine kinase inhibitors” (Vertex Pharmaceuticals Incorporated, priority 2008, dated 2015).

What was measured:
Type in all cases: biochemical
[1] = molecular target: PKC theta kinase (Homo sapiens, UniProt Q04759); experiment: PKC theta kinase inhibition, coupled-enzyme (NADH absorbance) assay, Ki; details: 240 μM ATP, 18 nM PKC theta kinase, 30° C.
Outline: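 Enzyme and compound equilibrated 10 min at 30 °C before reaction in HEPES pH 7.5 buffer with MgCl2, NaCl, EDTA and Brij. Activity tracked as NADH loss at 340 nm through a coupled system. Initial-rate data fitted by non-linear regression to give Ki.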

[2] = molecular target: PKC delta kinase (Homo sapiens, UniProt Q05655); experiment: PKC delta kinase inhibition, coupled-enzyme (NADH absorbance) assay, Ki; details: 150 μM ATP, 46 nM PKC delta kinase, 30° C.; read-out: Ki PKC delta
PKC delta kinase, sequence (Q05655 whole entry): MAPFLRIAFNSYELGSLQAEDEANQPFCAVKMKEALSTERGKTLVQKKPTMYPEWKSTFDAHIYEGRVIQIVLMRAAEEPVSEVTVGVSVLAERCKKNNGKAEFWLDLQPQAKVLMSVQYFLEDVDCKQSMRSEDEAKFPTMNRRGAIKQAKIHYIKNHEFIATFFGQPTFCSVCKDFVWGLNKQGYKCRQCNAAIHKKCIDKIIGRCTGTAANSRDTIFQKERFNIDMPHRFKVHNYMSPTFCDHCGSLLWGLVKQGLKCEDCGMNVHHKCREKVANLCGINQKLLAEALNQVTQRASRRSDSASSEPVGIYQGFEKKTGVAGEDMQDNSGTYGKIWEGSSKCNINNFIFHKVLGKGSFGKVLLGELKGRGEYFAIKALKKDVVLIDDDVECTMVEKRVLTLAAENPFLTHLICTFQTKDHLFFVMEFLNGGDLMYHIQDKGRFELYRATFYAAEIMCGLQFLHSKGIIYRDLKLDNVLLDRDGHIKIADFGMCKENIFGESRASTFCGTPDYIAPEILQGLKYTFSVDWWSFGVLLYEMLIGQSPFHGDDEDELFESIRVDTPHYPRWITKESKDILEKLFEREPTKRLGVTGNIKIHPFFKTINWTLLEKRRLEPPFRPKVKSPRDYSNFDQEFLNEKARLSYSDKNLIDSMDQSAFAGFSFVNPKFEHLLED
Outline: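 Enzyme and compound pre-equilibrated 10 min at 30° C before adding ATP to 150 μM final. Buffer: HEPES pH 7.5 (100 mM), 10 mM MgCl2, 25 mM NaCl, 0.1 mM EDTA, 0.01% Brij.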

[3] = molecular target: PKC alpha kinase (Homo sapiens, UniProt P17252); experiment: PKC alpha kinase inhibition, coupled-enzyme (NADH absorbance) assay, Ki; details: 130 μM ATP, 4.5 nM PKC alpha kinase, 30° C.
Outline: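 Ki derived by non-linear regression of initial rates from a coupled assay tracking NADH absorbance at 340 nm over 15 min at 30 °C. ATP was 130 μM final after a 10 min compound–enzyme preincubation in HEPES pH 7.5 buffer with MgCl2, CaCl2, NaCl, EDTA and Brij.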

PKC theta kinase, sequence (Q04759 whole entry): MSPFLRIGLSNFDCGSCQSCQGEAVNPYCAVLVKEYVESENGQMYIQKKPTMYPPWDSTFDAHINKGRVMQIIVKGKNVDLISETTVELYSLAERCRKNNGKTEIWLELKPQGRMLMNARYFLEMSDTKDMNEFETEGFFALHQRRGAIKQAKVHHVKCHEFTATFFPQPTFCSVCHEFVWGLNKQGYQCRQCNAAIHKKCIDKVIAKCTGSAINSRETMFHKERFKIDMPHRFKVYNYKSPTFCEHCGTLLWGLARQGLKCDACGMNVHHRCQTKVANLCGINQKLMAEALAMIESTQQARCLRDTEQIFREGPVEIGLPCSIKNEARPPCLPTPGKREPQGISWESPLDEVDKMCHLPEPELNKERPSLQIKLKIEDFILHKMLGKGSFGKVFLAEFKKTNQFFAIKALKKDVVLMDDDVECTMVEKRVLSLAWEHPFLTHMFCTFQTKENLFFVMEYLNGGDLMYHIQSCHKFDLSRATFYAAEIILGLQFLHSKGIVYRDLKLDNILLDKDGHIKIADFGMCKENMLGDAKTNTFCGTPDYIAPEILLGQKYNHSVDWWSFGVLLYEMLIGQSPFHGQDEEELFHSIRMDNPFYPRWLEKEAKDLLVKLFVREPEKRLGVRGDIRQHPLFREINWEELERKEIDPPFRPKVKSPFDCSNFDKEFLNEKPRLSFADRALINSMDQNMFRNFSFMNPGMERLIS

Row | SMILES | Ki [1] | Ki [2] | Ki [3]
1 | OC1([C@@H]2CN(c3nc(-c4n[nH]c5ncccc45)c(F)cc3F)CCN2)CC1 [Compound 156] | < 1 nM | < 500 nM | > 1250 nM
2 | CC(C)C(C)(O)C1CN(c2cncc(-c3n[nH]c4ncccc34)n2)CCN1 (stereo not drawn) [Compound 426] | < 50 nM | < 500 nM | < 2800 nM
3 | NCC1CCCN(c2ccc(C(F)(F)F)c(-c3n[nH]c4ncccc34)n2)C1 (stereo not drawn) [Compound 128] | > 700 nM | > 1250 nM | > 1250 nM
4 | CC(C)C[C@H]1CN(c2cccc(-c3n[nH]c4ncc(Cl)cc34)n2)CCN1 [Compound 38] | < 50 nM | < 500 nM | < 500 nM
5 | OC1([C@@H]2CN(c3ccc(F)c(-c4n[nH]c5ncccc45)n3)CCN2)CC1 [Compound 251] | < 50 nM | < 500 nM | > 1250 nM
6 | C[C@H]1CN(c2cccc(-c3n[nH]c4ncc(Cl)cc34)n2)CCN1 [Compound 43] | < 500 nM | < 500 nM | < 500 nM
7 | NCC1CN(c2ccc(C(F)(F)F)c(-c3n[nH]c4ncccc34)n2)C1 [Compound 363] | > 700 nM | > 1250 nM | > 1250 nM
8 | CC(C)C[C@H]1CN(c2ccc(C(F)(F)F)c(-c3n[nH]c4ncccc34)n2)CC[C@H]1N [Compound 84] | < 50 nM | < 500 nM | < 2800 nM
9 | CC(C)(C)C1CN(c2ccc(F)c(-c3n[nH]c4ncccc34)n2)CCN1 (stereo not drawn) [Compound 197] | < 50 nM | < 500 nM | > 1250 nM
10 | CCC(C)(O)C1CN(c2ccc(F)c(-c3n[nH]c4ncccc34)n2)CCN1 (stereo not drawn) [Compound 244] | < 500 nM | > 1250 nM | > 1250 nM
11 | C=C(F)c1ccc(N2CCN[C@@H](CC(C)C)C2)nc1-c1n[nH]c2ncccc12 [Compound 6] | < 50 nM | < 500 nM | < 500 nM
12 | Cc1ccc(-c2n[nH]c3ncccc23)nc1N1CCN[C@@H](CC(C)C)C1 [Compound 40] | < 500 nM | < 2800 nM | > 1250 nM
13 | CC(C)(F)C(C)(O)C1CN(c2ccc(F)c(-c3n[nH]c4ncccc34)n2)CCN1 (stereo not drawn) [Compound 254] | < 1 nM | < 50 nM | > 1250 nM
14 | N#CCCC1CN(c2ccc(C(F)(F)F)c(-c3n[nH]c4ncccc34)n2)CCC1O (stereo not drawn) [Compound 459] | < 2800 nM | > 1250 nM | > 1250 nM
15 | FC(F)(F)CC1CN(c2cccc(-c3n[nH]c4ncccc34)n2)CCN1 (stereo not drawn) [Compound 28] | < 50 nM | < 500 nM | < 2800 nM
16 | CC(C)C(O)(CF)C1CN(c2ccc(F)c(-c3n[nH]c4ncccc34)n2)CCN1 (stereo not drawn) [Compound 264] | < 50 nM | < 500 nM | > 1250 nM
17 | CC(C)CC1CCCN(c2ccc(C(F)(F)F)c(-c3n[nH]c4ncccc34)n2)C1 (stereo not drawn) [Compound 333] | > 700 nM | > 1250 nM | > 1250 nM
18 | CC(C)(C)C(N)C1CCCN(c2ccc(F)c(-c3n[nH]c4ncccc34)n2)C1 (stereo not drawn) [Compound 308] | < 50 nM | < 2800 nM | > 1250 nM
19 | Fc1ccc(N2CCC(F)CC2)nc1-c1n[nH]c2ncccc12 [Compound 267] | > 700 nM | > 1250 nM | > 1250 nM
20 | CC(C)CC1(C)CN(c2ccc(F)c(-c3n[nH]c4ncccc34)n2)CCC1N (stereo not drawn) [Compound 385] | < 50 nM | < 500 nM | < 500 nM
21 | c1cc(-c2n[nH]c3ncccc23)nc(N2CCN[C@@H](CC3CC3)C2)c1 [Compound 162] | < 50 nM | < 500 nM | < 2800 nM
22 | CC(C)C(N)[C@H]1CCCN(c2ccc(C(F)(F)F)c(-c3n[nH]c4ncccc34)n2)C1 (stereo partly drawn) [Compound 265] | < 500 nM | < 500 nM | > 1250 nM

Now from value to compound:

Row | Ki [1] | Ki [2] | Ki [3] | SMILES
23 | < 50 nM | < 500 nM | > 1250 nM | CC(C)(F)C1CN(c2cccc(-c3n[nH]c4ncccc34)n2)CCN1 (stereo not drawn) [Compound 148]
24 | < 500 nM | > 1250 nM | > 1250 nM | CC(C)CC1(N)CCCN(c2ccc(C(F)(F)F)c(-c3n[nH]c4ncccc34)n2)C1 (stereo not drawn) [Compound 285]
25 | < 500 nM | > 1250 nM | > 1250 nM | CN1CCN(c2ccc(F)c(-c3n[nH]c4ncccc34)n2)CC1 [Compound 226, 3-(3-fluoro-6-(4-methylpiperazin-1-yl)pyridin-2-yl)-1H-pyrazolo[3,4-b]pyridine]
26 | < 50 nM | > 1250 nM | > 1250 nM | OC1(C2CN(c3ccc(F)c(-c4n[nH]c5ncccc45)n3)CCN2)COC1 (stereo not drawn) [Compound 230]
27 | < 500 nM | < 500 nM | < 500 nM | Clc1cnc2[nH]nc(-c3cccc(N4CCNCC4)n3)c2c1 [Compound 42]
28 | < 50 nM | > 1250 nM | > 1250 nM | CC(C)C(C)(O)C1CN(c2ccc(C(F)(F)F)c(-c3n[nH]c4ncccc34)n2)CCN1 (stereo not drawn) [Compound 236]
29 | < 50 nM | < 50 nM | < 2800 nM | CC(C)C[C@H]1CN(c2cccc(-c3n[nH]c4ncccc34)n2)C[C@@H](C)N1 [Compound 11]
30 | < 500 nM | > 2000 nM | > 1250 nM | FC(F)(F)c1ccc(N2CCCNCC2)nc1-c1n[nH]c2ncccc12 [Compound 97]
31 | < 500 nM | > 1250 nM | > 1250 nM | CC(C)CC1(O)CNCCN(c2ccc(F)c(-c3n[nH]c4ncccc34)n2)C1 (stereo not drawn) [Compound 196]
32 | < 50 nM | < 50 nM | < 500 nM | CC(C)CC1(CO)CN(c2ccc(F)c(-c3n[nH]c4ncccc34)n2)CCC1N (stereo not drawn) [Compound 293]
33 | < 500 nM | > 1250 nM | > 1250 nM | CNC1CCN(c2ccc(F)c(-c3n[nH]c4ncccc34)n2)CC1 [Compound 369]
34 | < 50 nM | < 2800 nM | < 2800 nM | FC(F)(F)c1ccc(N2CCN[C@@H](c3ccccc3)C2)nc1-c1n[nH]c2ncccc12 [Compound 129]
35 | > 700 nM | > 2000 nM | > 1250 nM | CC1CN(c2cccc(-c3n[nH]c4ncccc34)n2)C(C)CN1 (stereo not drawn) [Compound 23]
36 | < 500 nM | < 500 nM | < 2800 nM | CC(C)CC1(CN)CN(c2ccc(C(F)(F)F)c(-c3n[nH]c4ncccc34)n2)CCO1 (stereo not drawn) [Compound 397]
37 | < 500 nM | > 1250 nM | > 1250 nM | CC(C)C(O)[C@@H]1CCCN(c2ccc(F)c(-c3n[nH]c4ncccc34)n2)C1 (stereo partly drawn) [Compound 278]
38 | < 50 nM | < 50 nM | < 2800 nM | CC(C)(C)C[C@H]1CN(c2cccc(-c3n[nH]c4ncccc34)n2)CCN1 [Compound 139]
39 | < 500 nM | > 1250 nM | > 1250 nM | COC(C)(C)CC1CN(c2ccc(C(F)(F)F)c(-c3n[nH]c4ncccc34)n2)CCN1 (stereo not drawn) [Compound 100]
40 | < 500 nM | > 1250 nM | > 1250 nM | NC[C@@H]1CCN(c2ccc(F)c(-c3n[nH]c4ncccc34)n2)C1 [Compound 357]
41 | < 2800 nM | > 2000 nM | > 1250 nM | CNC1CCN(c2cccc(-c3n[nH]c4ncccc34)n2)C1 (stereo not drawn) [Compound 24]
42 | < 50 nM | < 50 nM | < 500 nM | CC(C)CC1(C)CN(c2cccc(-c3n[nH]c4ncccc34)n2)CCN1 (stereo not drawn) [Compound 89]
43 | > 700 nM | > 1250 nM | > 1250 nM | Fc1ccc(N2CCC(C(F)(F)F)CC2)nc1-c1n[nH]c2ncccc12 [Compound 268]
44 | < 50 nM | < 50 nM | > 1250 nM | CC(C)(O)[C@@H]1CN(c2cccc(-c3n[nH]c4ncccc34)n2)CCN1 [Compound 176]
45 | > 700 nM | > 1250 nM | > 1250 nM | NC[C@H]1CCN(c2ccc(C(F)(F)F)c(-c3n[nH]c4ncccc34)n2)C1 [Compound 354]
46 | < 500 nM | < 2800 nM | > 1250 nM | CC(C)C(F)(F)C1CN(c2cccc(-c3n[nH]c4ncccc34)n2)CCN1 (stereo not drawn) [Compound 143]
47 | < 50 nM | < 500 nM | < 2800 nM | CC(O)(C1CC1)C1CN(c2ccc(F)c(-c3n[nH]c4ncccc34)n2)CCN1 (stereo not drawn) [Compound 247]
48 | < 50 nM | < 500 nM | > 1250 nM | CC(C)(O)[C@H]1CN(c2cccc(-c3n[nH]c4ncccc34)n2)CCN1 [Compound 136]
49 | < 500 nM | > 2000 nM | > 1250 nM | CC(C)C[C@H]1CN(c2ccc(C(F)(F)F)c(-c3n[nH]c4ncccc34)n2)CC[C@H]1O [Compound 91]
50 | < 50 nM | < 500 nM | > 1250 nM | NC1CCN(c2ccc(C(F)(F)F)c(-c3n[nH]c4ncccc34)n2)CC12CCCCC2 (stereo not drawn) [Compound 461]
51 | < 500 nM | > 2000 nM | < 2800 nM | CC(C)C[C@H]1CN(c2ccc(C(F)(F)F)c(-c3n[nH]c4ncc(Br)cc34)n2)CCN1 [Compound 29]
52 | < 50 nM | < 500 nM | < 2800 nM | CC(C)(C)C[C@H]1CN(c2ccc(Cl)c(-c3n[nH]c4ncccc34)n2)CCN1 [Compound 141]
